Measurements from patent publication US8969327B2, “Substituted androst-4-ene diones” (priority 2010, dated 2015).

Target: T1, Purified P450arom (aromatase) reconstituted with P450-reductase (CPR) (Homo sapiens, UniProt P11511)
T1 sequence (P11511 1-503): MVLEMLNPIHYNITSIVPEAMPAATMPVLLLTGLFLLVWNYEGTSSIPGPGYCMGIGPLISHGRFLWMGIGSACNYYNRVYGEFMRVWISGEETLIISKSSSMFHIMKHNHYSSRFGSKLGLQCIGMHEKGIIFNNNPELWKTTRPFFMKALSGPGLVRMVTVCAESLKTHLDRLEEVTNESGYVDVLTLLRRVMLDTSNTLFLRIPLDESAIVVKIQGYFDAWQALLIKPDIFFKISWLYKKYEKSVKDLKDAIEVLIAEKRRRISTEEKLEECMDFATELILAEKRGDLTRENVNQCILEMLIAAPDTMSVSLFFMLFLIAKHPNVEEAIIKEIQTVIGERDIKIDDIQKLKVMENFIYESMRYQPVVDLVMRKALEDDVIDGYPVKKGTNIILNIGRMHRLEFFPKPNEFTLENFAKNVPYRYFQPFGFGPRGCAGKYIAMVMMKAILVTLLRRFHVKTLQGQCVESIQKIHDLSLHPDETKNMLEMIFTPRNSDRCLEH
Assay: Measurement of aromatase activity by 3H-water method
Format: biochemical
Settings: substrate 0.24 μM [1β-3H, 4-14C] androstenedione, 37° C., 20 minutes

[1] = compound concentration 0.1 (μmol)
[2] = compound concentration 1 (μmol)
[3] = compound concentration 10 (μmol)

| Compound | % Inhibition [1] [%] | % Inhibition [2] [%] | % Inhibition [3] [%] |
| --- | --- | --- | --- |
| CCCC#CCO[C@@H]1C[C@@H]2[C@H](CC[C@]3(C)C(=O)CC[C@@H]23)[C@@]2(C)C=CC(=O)C=C12 [HDDG-047] | 42 | 95 | 99 |
| CCCCC#CCO[C@@H]1C[C@@H]2[C@H](CC[C@]3(C)C(=O)CC[C@@H]23)[C@@]2(C)C=CC(=O)C=C12 [HDDG-048] | 48 | 87 | 97 |
| C[C@]12CCC(O)=C(OCc3ccccc3)C1=CC[C@@H]1[C@@H]2CC[C@]2(C)C(=O)CC[C@@H]12 [HDDG-050, (8R,9S,10R,13S,14S)-4-(benzyloxy)-3-hydroxy-10,13-dimethyl-7,8,9,10,11,12,13,14,15,16-decahydro-1H-cyclopenta[α]phenanthren-17(2H)-one] | 75 | 96 | 100 |
| CCCCO[C@@H]1C[C@@H]2[C@H](CC[C@]3(C)C(=O)CC[C@@H]23)[C@@]2(C)CCC(=O)C=C12 [HDDG-052] | 47 | 95 | 87 |
| C[C@]12C=CC(=O)C=C1[C@H](OCC#Cc1ccc(Cl)c(Cl)c1)C[C@@H]1[C@@H]2CC[C@]2(C)C(=O)CC[C@@H]12 [HDDG-053, (6R,8R,9S,10R,13S,14S)-6-((3-(3,4-dichlorophenyl)prop-2-yn-1-yl)oxy)-10,13-dimethyl-7,8,9,10,11,12,13,14,15,16-decahydro-3H-cyclopenta[α]phenanthrene-3,17(6H)-dione] | 95 | 91 | – |
| C[C@]12C=CC(=O)C=C1[C@H](OCC#Cc1cccc3ccccc13)C[C@@H]1[C@@H]2CC[C@]2(C)C(=O)CC[C@@H]12 [HDDG-054, (6R,8R,9S,10R,13S,14S)-10,13-dimethyl-6-((3-(naphthalen-1-yl)prop-2-yn-1-yl)oxy)-7,8,9,10,11,12,13,14,15,16-decahydro-3H-cyclopenta[α]phenanthrene-3,17(6H)-dione] | 94 | 92 | – |
| C[C@]12C=CC(=O)C=C1[C@H](OC/C=C/c1ccccc1)C[C@@H]1[C@@H]2CC[C@]2(C)C(=O)CC[C@@H]12 [HDDG-058, (6R,8R,9S,10R,13S,14S)-6-(cinnamyloxy)-10,13-dimethyl-7,8,9,10,11,12,13,14,15,16-decahydro-3H-cyclopenta[α]phenanthrene-3,17(6H)-dione] | 95 | 94 | – |
| CC/C=C/CO[C@@H]1C[C@@H]2[C@H](CC[C@]3(C)C(=O)CC[C@@H]23)[C@@]2(C)C=CC(=O)C=C12 [HDDG-061, (6R,8R,9S,10R,13S,14S)-10,13-dimethyl-6-((E)-pent-2-en-1-yloxy)-7,8,9,10,11,12,13,14,15,16-decahydro-3H-cyclopenta[α]phenanthrene-3,17(6H)-dione] | 96 | 93 | – |
| CC/C=C\CO[C@@H]1C[C@@H]2[C@H](CC[C@]3(C)C(=O)CC[C@@H]23)[C@@]2(C)C=CC(=O)C=C12 [HDDG-062, (6R,8R,9S,10R,13S,14S)-10,13-dimethyl-6-((Z)-pent-2-en-1-yloxy)-7,8,9,10,11,12,13,14,15,16-decahydro-3H-cyclopenta[α]phenanthrene-3,17(6H)-dione] | 97 | 96 | – |
| CCCCCO[C@@H]1C[C@@H]2[C@H](CC[C@]3(C)C(=O)CC[C@@H]23)[C@@]2(C)C=CC(=O)C=C12 [HDDG-063, (6R,8R,9S,10R,13S,14S)-10,13-dimethyl-6-(pentyloxy)-7,8,9,10,11,12,13,14,15,16-decahydro-3H-cyclopenta[α]phenanthrene-3,17(6H)-dione] | 96 | 97 | – |
| COc1ccc(COC2=C(O)CC[C@@]3(C)C2=CC[C@@H]2[C@@H]3CC[C@]3(C)C(=O)CC[C@@H]23)cc1 [HDDG-064] | 96 | 96 | – |
| C[C@]12C=CC(=O)C=C1[C@H](OCC#CCO)C[C@@H]1[C@@H]2CC[C@]2(C)C(=O)CC[C@@H]12 [HDDG-065] | 96 | 84 | – |
| N#Cc1ccc(C(c2ccc(C#N)cc2)n2cncn2)cc1 [Letrazole, reference compound] | 76 | 98 | – |
